According to patent publication US11981646B1, “3-(4-methoxyphenyl)-5-{[5-methyl-2-(propan-2-yl)phenoxy]methyl}-1,2,4-oxadiazole as an antitumor and antimicrobial compound” (King Faisal University, priority 2023, dated 2024):

Columns and labels:
[1] = tested on: human prostate cancer cells (PC3); test: Assessment of cytotoxicity by SRB assay, PC3 cells; assay type: cell-based; details: 0.01 μM to 100 μM for 72 h
Description: (§1) Human prostate cancer cells (PC3) and human osteosarcoma cells (MG-63) were obtained from Nawah Scientific Inc. (Mokatam, Cairo, Egypt) and cultured in DMEM (Dulbecco's modified eagle's medium), Gibco, USA, supplemented with fetal bovine serum (FBS) at a concentration of 10% and 100 U/mL of penicillin and streptomycin (PS). The Cells were incubated at 37° C. in a humidified environment that contained 5% CO2. Cells were seeded in 96-well plates as aliquots of 100 μL cell suspension and incubated in a complete media for 24 h. Afterward, cells were treated with 3-(4-methoxyphenyl)-5-{[5-methyl-2-(propan-2-yl)phenoxy]methyl}-1,2,4-oxadiazole at diverse concentrations ranging from 0.01 μM to 100 μM for 72 h. Then, cells were fixed at 4° C. for one hour with 150 μL of 10% trichloroacetic acid (TCA). After washing the cells five times with distilled water, 70 μL of sulforhodamine (SRB) solution (0.4% w/v) was added and incubated for 10 min at room temperature in a dark place. […] Then, 150 μL of Tris pH 10.5 (10 mM) was added, and the absorbance was measured at 540 nm using a BMG LABTECH®-FLUOstar Omega microplate reader (Ortenberg, Germany). Half maximal inhibitory concentrations (IC50) values were calculated for each experiment using GraphPad Prism 6 software. […] The inhibition was calculated using the following equation: Inhibition %=100−Average Viability

[2] = tested on: human osteosarcoma cells (MG-63); test: Assessment of cytotoxicity by SRB assay, MG-63 cells; assay type: cell-based; details: 0.01 μM to 100 μM for 72 h
Description: as §1

COc1ccc(-c2noc(COc3cc(C)ccc3C(C)C)n2)cc1 [3-(4-methoxyphenyl)-5-{[5-methyl-2-(propan-2-yl)phenoxy]methyl}-1,2,4-oxadiazole]
antiproliferative activity against prostate cancer cells (PC3) [1]: excellent antiproliferative activities | antiproliferative activity against osteosarcoma (MG-63) cells [2]: excellent antiproliferative activities
